Results as given in US20070049564A1 (Wyeth, priority 2005, published 2007).
Converted amounts (≈) assume the structure as drawn. Read-outs that look alike come from different tables or passages of the source.

Assays:
[1] = system: S. pyogenes GC 4563; test: MIC, broth microdilution; conditions: Streptococcus pyogenes
[2] = system: S. agalactiae GC 4564; test: MIC, broth microdilution; conditions: Streptococcus agalactiae
[3] = system: E. coli GC 2272; test: MIC, broth microdilution; conditions: Escherichia coli
[4] = system: Staph. aureus Smith; test: In vivo activity (oral, iv; ED50) against Staph. aureus Smith in mice
Method: Representative examples of compounds of Formula I were tested for the oral efficacy using S. aureus Smith in mice.

[5] = system: P. aeruginosa GC 2214; test: MIC, broth microdilution; conditions: Pseudomonas aeruginosa
[6] = system: E. coli GC 2236; test: MIC, broth microdilution; conditions: Escherichia coli
[7] = system: S. aureus GC 6335; test: MIC, broth microdilution; conditions: Staphylococcus aureus
[8] = system: S. epidermidis GC 4935; test: MIC, broth microdilution; conditions: Staphylococcus epidermidis
[9] = system: E. faecalis GC 2267; test: MIC, broth microdilution; conditions: Enterococcus faecalis
[10] = system: S. pneumoniae* GC 4465; test: MIC, broth microdilution; conditions: Streptococcus pneumoniae
[11] = system: E. coli GC 2271; test: MIC, broth microdilution; conditions: Escherichia coli
[12] = system: S. aureus GC 1131; test: MIC, broth microdilution; conditions: Staphylococcus aureus
[13] = system: E. coli GC 2203; test: MIC, broth microdilution; conditions: Escherichia coli
[14] = system: E. coli GC 2234; test: MIC, broth microdilution; conditions: Escherichia coli
[15] = system: E. faecalis GC 4555; test: MIC, broth microdilution; conditions: Enterococcus faecalis
[16] = system: E. coli GC 4559; test: MIC, broth microdilution; conditions: Escherichia coli
Method: Antimicrobial susceptibility testing. The in vitro activities of the antibiotics are determined by the broth microdilution method as recommended by the National Committee for Clinical Laboratory Standards (NCCLS) (1). Mueller-Hinton II broth (MHBII)(BBL Cockeysville, Md.) is the medium employed in the testing procedures. Microtiter plates containing serial dilutions of each antimicrobial agent are inoculated with each organism to yield the appropriate density (10^5 CFU/ml) in a 100 μl final volume. The plates are incubated for 18-22 hours at 35° C. in ambient air.
Representative compounds were first incubated in mouse serum for an hour prior to the in vitro testing against a panel of selected gram-positive and gram-negative bacteria strains. All compounds were also pre-incubated in water for an hour prior to testing as control. Representative compounds of Formula I were incubated in human serum prior to MIC determination.

[17] = system: E. faecalis GC 2265; test: MIC, broth microdilution; conditions: Enterococcus faecalis
[18] = system: E. coli GC 3226; test: MIC, broth microdilution; conditions: Escherichia coli
[19] = system: E. coli GC 2232; test: MIC, broth microdilution; conditions: Escherichia coli
[20] = system: S. pneumoniae+ GC 4465; test: MIC, broth microdilution; conditions: Streptococcus pneumoniae
[21] = read-out: MINIMAL INHIBITORY CONCENTRATION MIC, pre-incubated in Human Serum
[22] = read-out: MINIMAL INHIBITORY CONCENTRATION MIC, pre-incubated in Mouse Serum
[23] = read-out: MINIMAL INHIBITORY CONCENTRATION MIC, pre-incubated in Water

## CC(C)C(=O)OCOC(=O)N(CC(=O)Nc1cc(N(C)C)c2c(c1O)C(=O)C1=C(O)[C@]3(O)C(=O)C(C(N)=O)=C(O)[C@@H](N(C)C)[C@@H]3C[C@@H]1C2)C(C)(C)C [Example 45, ({[(2-{[(5aR,6aS,7S,10aS)-9-(aminocarbonyl)-4,7-bis(dimethylamino)-1,8,10a,11-tetrahydroxy-10,12-dioxo-5,5a,6,6a,7,10,10a,12-octahydrotetracen-2-yl]amino}-2-oxoethyl)(tert-butyl)amino]carbonyl}oxy)methyl 2-methylpropanoate]
[1]; GC4563, read-out: MINIMAL INHIBITORY CONCENTRATION MIC, pre-incubated in Human Serum
  MIC: 0.25 µg/mL (≈ 0.343 µM)
[1]; GC4563, read-out: MINIMAL INHIBITORY CONCENTRATION MIC, pre-incubated in Mouse Serum
  MIC: 0.25 µg/mL (≈ 0.343 µM)
[1]; GC4563, read-out: MINIMAL INHIBITORY CONCENTRATION MIC, pre-incubated in Water
  MIC: 0.5 µg/mL (≈ 0.685 µM)
[2]; GC4564, read-out: MINIMAL INHIBITORY CONCENTRATION MIC, pre-incubated in Human Serum
  MIC: 0.5 µg/mL (≈ 0.685 µM)
[2]; GC4564, read-out: MINIMAL INHIBITORY CONCENTRATION MIC, pre-incubated in Mouse Serum
  MIC: 0.25 µg/mL (≈ 0.343 µM)
[2]; GC4564, read-out: MINIMAL INHIBITORY CONCENTRATION MIC, pre-incubated in Water
  MIC: 0.5 µg/mL (≈ 0.685 µM)
[3]; GC2272, read-out: MINIMAL INHIBITORY CONCENTRATION MIC, pre-incubated in Human Serum
  MIC: 8 µg/mL (≈ 11 µM)
[3]; GC2272, read-out: MINIMAL INHIBITORY CONCENTRATION MIC, pre-incubated in Mouse Serum
  MIC: 1 µg/mL (≈ 1.37 µM)
[3]; GC2272, read-out: MINIMAL INHIBITORY CONCENTRATION MIC, pre-incubated in Water
  MIC: 16 µg/mL (≈ 21.9 µM)
[4]; Staphylococcus aureus, in Mus musculus, iv, read-out: ED50 SIV (Staph aureus Smith)
  ED50: 0.66 mg/kg
[4]; Staphylococcus aureus, in Mus musculus, po, read-out: ED50 SOD (Staph aureus Smith)
  ED50: 5.9 mg/kg
[4]; Staphylococcus aureus, in Mus musculus, po, read-out: ED50 Staph Smith SOD
  ED50: 5.9 mg/kg
[4]; iv, read-out: ED50 Staph Smith SIV
  ED50: 0.66 mg/kg
[5]; GC2214, read-out: MINIMAL INHIBITORY CONCENTRATION MIC, pre-incubated in Human Serum
  MIC: > 64 µg/mL
[5]; GC2214, read-out: MINIMAL INHIBITORY CONCENTRATION MIC, pre-incubated in Mouse Serum
  MIC: 16 µg/mL (≈ 21.9 µM)
[5]; GC2214, read-out: MINIMAL INHIBITORY CONCENTRATION MIC, pre-incubated in Water
  MIC: > 64 µg/mL
[6]; GC2236, read-out: MINIMAL INHIBITORY CONCENTRATION MIC, pre-incubated in Human Serum
  MIC: 4 µg/mL (≈ 5.48 µM)
[6]; GC2236, read-out: MINIMAL INHIBITORY CONCENTRATION MIC, pre-incubated in Mouse Serum
  MIC: 1 µg/mL (≈ 1.37 µM)
[6]; GC2236, read-out: MINIMAL INHIBITORY CONCENTRATION MIC, pre-incubated in Water
  MIC: 16 µg/mL (≈ 21.9 µM)
[7]; GC6335, read-out: MINIMAL INHIBITORY CONCENTRATION MIC, pre-incubated in Human Serum
  MIC: 0.5 µg/mL (≈ 0.685 µM)
[7]; GC6335, read-out: MINIMAL INHIBITORY CONCENTRATION MIC, pre-incubated in Mouse Serum
  MIC: 1 µg/mL (≈ 1.37 µM)
[7]; GC6335, read-out: MINIMAL INHIBITORY CONCENTRATION MIC, pre-incubated in Water
  MIC: 2 µg/mL (≈ 2.74 µM)
[8]; GC4935, read-out: MINIMAL INHIBITORY CONCENTRATION MIC, pre-incubated in Human Serum
  MIC: 1 µg/mL (≈ 1.37 µM)
[8]; GC4935, read-out: MINIMAL INHIBITORY CONCENTRATION MIC, pre-incubated in Mouse Serum
  MIC: 1 µg/mL (≈ 1.37 µM)
[8]; GC4935, read-out: MINIMAL INHIBITORY CONCENTRATION MIC, pre-incubated in Water
  MIC: 2 µg/mL (≈ 2.74 µM)
[9]; GC2267, read-out: MINIMAL INHIBITORY CONCENTRATION MIC, pre-incubated in Human Serum
  MIC: 1 µg/mL (≈ 1.37 µM)
[9]; GC2267, read-out: MINIMAL INHIBITORY CONCENTRATION MIC, pre-incubated in Mouse Serum
  MIC: 0.5 µg/mL (≈ 0.685 µM)
[9]; GC2267, read-out: MINIMAL INHIBITORY CONCENTRATION MIC, pre-incubated in Water
  MIC: 2 µg/mL (≈ 2.74 µM)
[10]; [21]
  MIC: 0.25 µg/mL (≈ 0.343 µM)
[10]; [22]
  MIC: 0.25 µg/mL (≈ 0.343 µM)
[10]; [23]
  MIC: 0.5 µg/mL (≈ 0.685 µM)
[11]; GC2271, read-out: MINIMAL INHIBITORY CONCENTRATION MIC, pre-incubated in Human Serum
  MIC: 4 µg/mL (≈ 5.48 µM)
[11]; GC2271, read-out: MINIMAL INHIBITORY CONCENTRATION MIC, pre-incubated in Mouse Serum
  MIC: 0.5 µg/mL (≈ 0.685 µM)
[11]; GC2271, read-out: MINIMAL INHIBITORY CONCENTRATION MIC, pre-incubated in Water
  MIC: 16 µg/mL (≈ 21.9 µM)
[12]; GC1131, read-out: MINIMAL INHIBITORY CONCENTRATION MIC, pre-incubated in Human Serum
  MIC: 0.5 µg/mL (≈ 0.685 µM)
[12]; GC1131, read-out: MINIMAL INHIBITORY CONCENTRATION MIC, pre-incubated in Mouse Serum
  MIC: 0.5 µg/mL (≈ 0.685 µM)
[12]; GC1131, read-out: MINIMAL INHIBITORY CONCENTRATION MIC, pre-incubated in Water
  MIC: 1 µg/mL (≈ 1.37 µM)
[13]; GC2203, read-out: MINIMAL INHIBITORY CONCENTRATION MIC, pre-incubated in Human Serum
  MIC: 4 µg/mL (≈ 5.48 µM)
[13]; GC2203, read-out: MINIMAL INHIBITORY CONCENTRATION MIC, pre-incubated in Mouse Serum
  MIC: 0.5 µg/mL (≈ 0.685 µM)
[13]; GC2203, read-out: MINIMAL INHIBITORY CONCENTRATION MIC, pre-incubated in Water
  MIC: 32 µg/mL (≈ 43.8 µM)
[14]; GC2234, read-out: MINIMAL INHIBITORY CONCENTRATION MIC, pre-incubated in Human Serum
  MIC: 4 µg/mL (≈ 5.48 µM)
[14]; GC2234, read-out: MINIMAL INHIBITORY CONCENTRATION MIC, pre-incubated in Mouse Serum
  MIC: 0.5 µg/mL (≈ 0.685 µM)
[14]; GC2234, read-out: MINIMAL INHIBITORY CONCENTRATION MIC, pre-incubated in Water
  MIC: 16 µg/mL (≈ 21.9 µM)
[15]; GC4555, read-out: MINIMAL INHIBITORY CONCENTRATION MIC, pre-incubated in Human Serum
  MIC: 2 µg/mL (≈ 2.74 µM)
[15]; GC4555, read-out: MINIMAL INHIBITORY CONCENTRATION MIC, pre-incubated in Mouse Serum
  MIC: 1 µg/mL (≈ 1.37 µM)
[15]; GC4555, read-out: MINIMAL INHIBITORY CONCENTRATION MIC, pre-incubated in Water
  MIC: 2 µg/mL (≈ 2.74 µM)
[16]; GC4559, read-out: MINIMAL INHIBITORY CONCENTRATION MIC, pre-incubated in Human Serum
  MIC: 8 µg/mL (≈ 11 µM)
[16]; GC4559, read-out: MINIMAL INHIBITORY CONCENTRATION MIC, pre-incubated in Mouse Serum
  MIC: 1 µg/mL (≈ 1.37 µM)
[16]; GC4559, read-out: MINIMAL INHIBITORY CONCENTRATION MIC, pre-incubated in Water
  MIC: 64 µg/mL (≈ 87.7 µM)
[17]; GC2265, read-out: MINIMAL INHIBITORY CONCENTRATION MIC, pre-incubated in Human Serum
  MIC: 1 µg/mL (≈ 1.37 µM)
[17]; GC2265, read-out: MINIMAL INHIBITORY CONCENTRATION MIC, pre-incubated in Mouse Serum
  MIC: 0.5 µg/mL (≈ 0.685 µM)
[17]; GC2265, read-out: MINIMAL INHIBITORY CONCENTRATION MIC, pre-incubated in Water
  MIC: 4 µg/mL (≈ 5.48 µM)
[18]; GC3226, read-out: MINIMAL INHIBITORY CONCENTRATION MIC, pre-incubated in Human Serum
  MIC: 8 µg/mL (≈ 11 µM)
[18]; GC3226, read-out: MINIMAL INHIBITORY CONCENTRATION MIC, pre-incubated in Mouse Serum
  MIC: 1 µg/mL (≈ 1.37 µM)
[18]; GC3226, read-out: MINIMAL INHIBITORY CONCENTRATION MIC, pre-incubated in Water
  MIC: 64 µg/mL (≈ 87.7 µM)
[19]; GC2232, read-out: MINIMAL INHIBITORY CONCENTRATION MIC, pre-incubated in Human Serum
  MIC: 4 µg/mL (≈ 5.48 µM)
[19]; GC2232, read-out: MINIMAL INHIBITORY CONCENTRATION MIC, pre-incubated in Mouse Serum
  MIC: 1 µg/mL (≈ 1.37 µM)
[19]; GC2232, read-out: MINIMAL INHIBITORY CONCENTRATION MIC, pre-incubated in Water
  MIC: 16 µg/mL (≈ 21.9 µM)
[20]; [21]
  MIC: 2 µg/mL (≈ 2.74 µM)
[20]; [22]
  MIC: 2 µg/mL (≈ 2.74 µM)
[20]; [23]
  MIC: 4 µg/mL (≈ 5.48 µM)
